The text below walks through data of patent US20080214577A1, “New Compounds 320” (AstraZeneca AB, priority 2006, published 2008).

pIC50: −log10 of the molar value.

The target in this test is T1, human β-Secretase (Homo sapiens, UniProt P56817).
T1 construct: The soluble part of the human β-Secretase (AA 1-AA 460) was cloned; made in house
T1 sequence (P56817 22-460): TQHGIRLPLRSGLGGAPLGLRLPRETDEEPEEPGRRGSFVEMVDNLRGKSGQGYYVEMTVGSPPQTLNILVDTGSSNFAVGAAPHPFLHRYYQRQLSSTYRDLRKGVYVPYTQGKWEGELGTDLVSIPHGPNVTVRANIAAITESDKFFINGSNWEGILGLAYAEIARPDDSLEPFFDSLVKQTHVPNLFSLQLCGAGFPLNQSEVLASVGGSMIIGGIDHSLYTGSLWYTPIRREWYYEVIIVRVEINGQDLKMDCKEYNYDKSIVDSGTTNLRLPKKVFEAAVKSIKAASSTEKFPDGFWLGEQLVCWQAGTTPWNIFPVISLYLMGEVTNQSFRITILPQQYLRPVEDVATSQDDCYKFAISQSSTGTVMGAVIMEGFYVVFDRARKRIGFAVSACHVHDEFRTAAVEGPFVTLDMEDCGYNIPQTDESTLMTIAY
Description: TR-FRET assay. The test is classed as biochemical. Particulars: soluble human β-Secretase (sBACE-Fc), substrate (Europium)[…](Qsy7) 100 nM, pH 4.5. On the procedure:
The enzyme used in the IGEN Cleavage-, Fluorescent-, TR-FRET- and BiaCore assays is described as follows: The soluble part of the human β-Secretase (AA 1-AA 460) was cloned into the […]-Fc10-1-IRES-GFP-neoK mammalian expression vector. The gene was fused to the Fc domain of IgG1 (affinity tag) and stably cloned into HEK 293 cells. Purified sBACE-Fc is stored in Tris buffer, pH 9.2 and has a purity of 95%. TR-FRET Assay Enzyme was diluted to 6 μg/mL and the substrate ([…]7) to 200 nM in reaction buffer (NaAcetate, chaps, triton x-100, EDTA pH 4.5). Compounds were diluted to the desired concentration in dimethyl sulfoxide (final dimethyl sulfoxide concentration in assay is 5%). […] Enzyme (9 μL) and 1 μL of compound in dimethyl sulfoxide was added to the plate, mixed and pre-incubated for 10 min. Substrate (10 μL) was added and the reaction proceeded in the dark for 15 min at RT. The reaction was stopped with the addition of 7 μL NaAcetate, pH 9.
For orientation: TR-FRET usually uses a lanthanide donor and a delayed reading to cut background.
Take `NC1=NC(c2ccncc2)(c2cccc(-c3cccnc3F)c2)C2=NCC(F)(F)CN12` (centres unmarked) [Example 44, 3,3-Difluoro-8-[3-(2-fluoropyridin-3-yl)phenyl]-8-pyridin-4-yl-2,3,4,8-tetrahydroimidazo[1,5-a]pyrimidin-6-amine 0.75 acetate]: the pIC50 (as a rule, the negative decadic logarithm of the IC50, by convention in mol/L) is 6.92. As for `COc1ccc(C2(c3cccc(-c4cncnc4)c3)N=C(N)N3CC(F)CN=C32)cc1` (mixture of isomers) [Example 50, 3-Fluoro-8-(4-methoxyphenyl)-8-(3-pyrimidin-5-ylphenyl)-2,3,4,8-tetrahydroimidazo[1,5-a]pyrimidin-6-amine 4.0 acetate], the figure is 7.23. For `COc1ccc(C2(c3cccc(-c4cccnc4F)c3)N=C(N)N3CC(F)(F)CN=C32)cc1` (centres unmarked) [Example 42, 3,3-Difluoro-8-[3-(2-fluoropyridin-3-yl)phenyl]-8-(4-methoxyphenyl)-2,3,48-tetrahydroimidazo[1,5-a]pyrimidin-6-amine 0.75 acetate], the pIC50 was 7.54. In the case of `COc1ccc(C2(c3ccc(F)c(-c4cncnc4)c3)N=C(N)N3CC(F)(F)CN=C32)cc1C` (centres unmarked) [Example 88, 3,3-Difluoro-8-(4-fluoro-3-(pyrimidin-5-yl)phenyl)-8-(4-methoxy-3-methylphenyl)-2,3,48-tetrahydroimidazo[1,5-a]pyrimidin-6-amine acetate], the pIC50 was 7.04. As for `COc1ccc(C2(c3cccc(-c4cncnc4)c3)N=C(N)N3CC(S(C)(=O)=O)CN=C32)cc1` (mixture of isomers) [Example 28, 8-(4-Methoxyphenyl)-3-(methylsulfonyl)-8-(3-pyrimidin-5-ylphenyl)-2,3,4,8-tetrahydroimidazol[1,5-a]pyrimidin-6-amine 2.0 acetate], the figure is 6.60; as for `COc1ccc(C2(c3cccc(-c4cncc(OC)c4)c3)N=C(N)N3CC(F)(F)CN=C32)cc1` (centres unmarked) [Example 41, 3,3-Difluoro-8-(4-methoxyphenal)-8-[3-(5-methoxypyridin-3-yl)phenyl]-2,3,4,8-tetrahydroimidazo[1,5-a]pyrimidin-6-amine 0.75 acetate], 7.52. In the case of `COc1ccc(C2(c3cccc(-c4cncnc4)c3)N=C(N)N3CC(OC)CN=C32)cc1` (mixture of isomers) [Example 32, 3-Methoxy-8-(4-methoxyphenyl)-8-(3-pyrimidin-5-ylphenyl)-2,3,4,8-tetrahydroimidazo[1,5-a]pyrimidin-6-amine] it was 6.24; in that of `CN(C)C(=O)c1cccc(C2(c3cccc(-c4cccnc4F)c3)N=C(N)N3CC(F)(F)CN=C32)c1` (centres unmarked) [Example 69, 3-{6-Amino-3,3-difluoro-8-[3-(2-fluoropyridin-3-yl)phenyl]-2,3,4,8-tetrahydroimidazo[1,5-a]pyrimidin-8-yl}-N,N-dimethylbenzamide], 5.64. For `COc1ccc(C2(c3cccc(-c4cccnc4)c3)N=C(N)N3CC(F)(F)CN=C32)cc1` (centres unmarked) [Example 40, 3,3-Difluoro-8-(4-methoxyphenyl)-8-(3-pyridin-3-ylphenyl)-2,3,4,8-tetrahydroimidazo[1,5-a]pyrimidin-6-amine 0.75 acetate], the negative logarithm of the IC50 (pIC50) is 7.12.

`COc1cncc(-c2cccc(C3(c4ccncc4)N=C(N)N4CC(F)(F)CN=C43)c2)c1` (centres unmarked) [Example 43, 3,3-Difluoro-8-[3-(5-methoxypyridin-3-yl)phenyl]-8-pyridin-4-yl-2,3,4,8-tetrahydroimidazo[1,5-a]pyrimidin-6-amine acetate] had a pIC50 of 7.39. As to `COc1ccc(C2(c3cccc(-c4cncnc4)c3)N=C(N)N3CC(O)CN=C32)cc1` (mixture of isomers) [Example 30, 6-Amino-8-(4-methoxyphenyl)-8-(3-pyrimidin-5-ylphenyl)-2,3,4,8-tetrahydroimidazo[1,5-a]pyrimidin-3-ol], the pIC50 is 6.92. As for `NC1=NC(c2ccncc2)(c2cccc(-c3cncc(F)c3)c2)C2=NCC(F)(F)CN12` (centres unmarked) [Example 47, 3,3-Difluoro-8-[3-(5-fluoropyridin-3-yl)phenyl]-8-pyridin-4-yl-2,3,4,8-tetrahydroimidazo[1,5-a]pyrimidin-6-amine acetate], the figure is 7.23; as for `CN(C)C(=O)c1ccc(C2(c3cccc(-c4cccnc4F)c3)N=C(N)N3CC(F)(F)CN=C32)cc1` (centres unmarked) [Example 70, 4-{6-Amino-3,3-difluoro-8-[3-(2-fluoropyridin-3-yl)phenyl]-2,3,4,8-tetrahydroimidazo[1,5-a]pyrimidin-8-yl}-N,N-dimethylbenzamide], 5.68; as for `COc1ccc(C2(c3ccc(F)c(-c4cccnc4F)c3)N=C(N)N3CC(F)(F)CN=C32)cc1C` (centres unmarked) [Example 87, 3,3-Difluoro-8-(4-fluoro-3-(2-fluoropyridin-3-yl)phenyl)-8-(4-methoxy-3-methylphenyl)-2,3,4,8-tetrahydroimidazo[1,5-a]pyrimidin-6-amine acetate], 7.39.
